The nature of series [1]: Isobutanol partitioning between solvent and water (Kd, butanol partition coefficient).
Series [2] relates to genetically modified isobutanolagen yeast strain PNY2310. The class given is cell-based. The conditions noted are these: for Glucose: Example 9, With Solvent.
A further series relates to butanologen. Put plainly: Biocompatibility with a butanologen (discussion of examples). The class given is cell-based.
A short description of series [3]: Equilibrium moisture content of solvent. It counts as physicochemical. Particulars: Table 1. An excerpt:
The term “moisture content” as used herein refers to the equilibrium saturation of water contained by the solvent, whether or not product alcohol, e.g., isobutanol is present. At times the term “equilibrium” is used in conjunction with “moisture content” to indicate “moisture content” is related to a particular set of conditions, e.g., temperature, pressure, and so on. As will, be apparent, moisture content commonly refers to a maximum amount of water that can be dissolve by the solvent/solvent mixture given a certain set of conditions.
While the solvent mixture or portions thereof can be immiscible in water, e.g., on the order of 10^−7, in some instances one or more of the solvents can be comparatively weakly miscible in water. It is also to be appreciated, that water can be miscible (e.g., somewhat miscible) in the solvent mixture and/or miscible in one or more solvents included in the solvent mixture. COFA in some examples can absorb moisture, or water, such that the COFA is “wet”. A solvent's tendency to absorb moisture, e.g., act as a solvent, in some examples, can differ from that solvent's ability to solvate in water, e.g., its hydrophobicity. A table of various solvents and their respective characteristics is reproduced directly below.

Series [4] deals with genetically modified isobutanolagen yeast strain (PNY2141). The class given is cell-based. The conditions noted are these: for Glucose, gpl Grams per Liter / OD: With solvent.
The test system of series [5] is naturally occurring ethanologen yeast strain. The series can be described thus: Biocompatibility shake flask, glucose uptake (Example 1A). Particulars: 32° C. The class given is cell-based.
Series [6] relates to genetically modified isobutanologen yeast strain. Put plainly: Biocompatibility shake flask, OD and glucose (Examples 2, 3). The conditions noted are these: for Glucose / OD: Example 3, With Solvent. It counts as cell-based.
Another series has as its system Sacchromyces Cerevisiae. Particulars: in vitro; Bennis et al. 2004; cited from earlier work.
The next series has as its system ethanol red yeast strain. The series can be described thus: Biocompatibility shake flask, glucose (Example 12). It counts as cell-based.
The mark [7] stands for this setting: aqueous 2.0 wt % isobutanol, half its mass of solvent.
[8] abbreviates: aqueous 2.0 wt % isobutanol, half its mass of solvent (5 g/2.5 g or 1 g/0.5 g), HPLC.
[9] abbreviates: time 0 hr, 10 ml solvent on 20 ml medium, 32° C.
Where [10] appears, read: 10 ml aqueous 6 wt % isobutanol + 1 ml solvent.
[11] abbreviates: 10 ml aqueous 6 wt % isobutanol + 1 ml solvent, gas chromatography.
Setting [12] is: aqueous 2.0 wt % isobutanol, equal mass of solvent.
The mark [13] stands for this setting: aqueous 2.0 wt % isobutanol, equal mass of solvent (3 g/3 g or 5 g/5 g), HPLC.

In brackets after ≈: the same amount, converted by molar mass. Read-outs that look alike come from different tables or passages of the source. Where only a bound is given, the exact number is not on record here.

`CCN(CC)C(=O)c1cccc(C)c1` [DEET, diethyl m-toluamide]: in series [1] (setting [7]), the “isobutanol in organic layer, calculated by mass balance” value is reported as 3.17 wt % and the mass partitioning coefficient worked out at 9.2. For the same molecule, in [1] (setting [8]), the “isobutanol in aqueous layer” value is 0.34 wt %.

Turning to `CCCCN(CCCC)C(=O)N(CCCC)CCCC` [Tetrabutylurea, tetrabutylurea], the “isobutanol in organic layer, calculated by mass balance” value in series [1] (setting [7]) is given as 3.06 wt %. Moreover, in series [1] (setting [7]), the mass partitioning coefficient was determined as 7.35. Besides, the “isobutanol in aqueous layer” value in series [1] (setting [8]) turned out to be 0.417 wt %. Besides, the “glucose concentration versus flask without solvent” value in series [2] (Example 9) is on record as “No significant difference”. Moreover, the “Glucose” value in [2] (time 0 hr, 0.5 OD PNY2310, 10 ml solvent on 20 ml medium, 32° C.) amounted to 28 g/L; in series [2] (time 4 hr), 25 g/L; in series [2] (time 8 hr), 14 g/L; in [2] (time 12 hr), 0 g/L. Besides, the “biocompatibility with a butanologen (found in testing)” value (from here on “biocompatibility with a butanologen”) in the series on butanologen was “biocompatible with a butanologen”. For the same molecule, in series [3], the “Moisture Content (wt %)” value was 0.9 wt %.

In the case of triisobutylene, the “growth (OD and glucose) versus flask without solvent” value in series [4] (Example 1B, PNY2141, 32° C.) is listed as “Some impedance to growth”. Besides, the “Glucose, gpl Grams per Liter” value in series [4] (setting [9]) amounted to 28 gpl; in series [4] (time 6 hr), 27 gpl; in series [4] (time 10 hr), 26 gpl; in series [4] (time 19 hr), 22 gpl; in series [4] (time 23 hr), 21 gpl; in series [4] (time 30 hr), 14 gpl. The “Glucose, gpl Grams per Liter” value in series [4] (time 35 hr) is recorded as 10 gpl. The OD turned out to be 0.5 in [4] (setting [9]); 0.6 in series [4] (time 6 hr); 0.8 in series [4] (time 10 hr); 1.6 in [4] (time 19 hr); 2.1 in [4] (time 23 hr); 2.8 in [4] (time 30 hr). In [4] (time 35 hr), this molecule showed an OD of 3.4. Moreover, the “isobutanol in aqueous layer” value in series [1] (setting [10]) was determined as 1.33 mole %; in series [1] (setting [11]), 5.28 wt %; in series [1] (setting [13]), 1.53 wt %. The “isobutanol in organic layer” value in [1] (setting [10]) worked out at 18.39 mole %; in series [1] (setting [11]), 9.03 wt %. Also, the mass partitioning coefficient is reported as 1.71 in series [1] (setting [10]) and 0.31 in series [1] (setting [12]). Moreover, in series [1] (setting [10]), the molar partitioning coefficient is reported as 13.8. Besides, the “isobutanol in organic layer, calculated by mass balance” value in series [1] (setting [12]) is 0.47 wt %. In [5] (4 hours), the “glucose uptake versus flask without solvent” value was “No significant difference in glucose uptake”. Also, the “glucose in aqueous phase” value in series [5] (after 4 hours, start 21 g/liter glucose, 0.5 OD, 10 ml solvent on 20 ml medium) is reported as “less than 0.1 g/liter”.

For `CC(CC(C)(C)C)CC(C)(C)C` [isododecane, 2,2,4,6,6-pentamethylheptane], the “isobutanol in aqueous layer” value in series [1] (setting [10]) is on record as 1.39 mole %; in series [1] (setting [11]), 5.45 wt %; in [1] (setting [13]) it was 1.60 wt %. Also, the “isobutanol in organic layer” value in series [1] (setting [10]) was 17.24 mole %; in [1] (setting [11]) it was 8.31 wt %. Further, the mass partitioning coefficient in [1] (setting [10]) was 1.525; in [1] (setting [12]), 0.25. Further, the molar partitioning coefficient in series [1] (setting [10]) was found to be 12.4. In addition, the “isobutanol in organic layer, calculated by mass balance” value in series [1] (setting [12]) is 0.40 wt %. In addition, in the series on butanologen, the “biocompatibility with a butanologen” value is “biocompatible with a butanologen”. Moreover, the “growth (glucose uptake and OD) versus flask without solvent” value in series [6] (Example 3) is “No significant difference in growth”. Moreover, the “Glucose” value worked out at 32 g/L in [6] (time 0 hr); 32 g/L in series [6] (time 7 hr); 25 g/L in series [6] (time 13 hr); 5 g/L in series [6] (time 23 hr); 0.1 g/L in series [6] (time 29 hr). Also, the OD in series [6] (time 0 hr, 32 g/liter glucose, 10 ml solvent on 20 ml medium, 32° C.) is given as 0.5; in [6] (time 7 hr), 0.9; in [6] (time 13 hr) it was 1.6; in [6] (time 23 hr), 4.9; in [6] (time 29 hr), 5.0. Further, the “Moisture Content (wt %)” value in [3] is listed as less than 0.01 wt %.

As for `CC(C)CC(C)CC(O)CC(C)C` (stereo not drawn) [Isododecanol], in [1] (setting [7]), the “isobutanol in organic layer, calculated by mass balance” value is recorded as 2.87 wt % and the mass partitioning coefficient was 5.42. The “isobutanol in aqueous layer” value in series [1] (setting [8]) worked out at 0.53 wt %. The “Moisture Content (wt %)” value in [3] is on record as 0.2 wt %.

Take `CC(CC(C)(C)C)CC(C)(C)CC(C)(C)C` (stereo not drawn) [Isohexadecane, 2,2,4,4,6,8,8-heptamethylnonane]: in series [3], the “Moisture Content (wt %)” value was less than 0.01 wt %.

Turning to `CC(C)c1cccc(C(C)C)c1` [1,3-diisopropylbenzene], in series [4] (Example 6A), the “consumption of glucose in presence of solvent” value is given as “No significant consumption of glucose”. The “Glucose (grams per liter, gpl)” value in series [4] (Example 6A, time 0 hours, 1.0 OD PNY2141, 10 ml solvent on 20 ml medium, 32° C.) was 30 gpl; in [4] (Example 6A, time 6 hours), 30 gpl; in [4] (Example 6A, time 11 hours), 30 gpl; in series [4] (Example 6A, time 16 hours), 28 gpl; in series [4] (Example 6A, time 24 hours), 29 gpl. Further, the “biocompatibility with a butanologen” value in the series with butanologen is given as “not to be biocompatible”.

On to `CCCCC(CC)CO` (stereo not drawn) [2-ethylhexanol], for which, in series [3], the “Moisture Content (wt %)” value amounted to 2 wt %.

For the molecule `Cc1ccc(C(C)C)c(O)c1` [thymol], in the series with Sacchromyces Cerevisiae, the “MFC (minimum fungal concentration)” value is 1800 µM (≈ 270 µg/mL) and the “MIC, minimum inhibitory concentration” value was 1500 µM (≈ 225 µg/mL).

On to `Cc1ccc(C(C)C)cc1O` [Carvacrol, carvacrol], for which, in series [1] (setting [7]), the “isobutanol in organic layer, calculated by mass balance” value was 3.42 wt % and the mass partitioning coefficient is on record as 15.5. The “isobutanol in aqueous layer” value in series [1] (setting [8]) worked out at 0.22 wt %. Besides, the “Moisture Content (wt %)” value in [3] is 2 wt %.

Consider `CCCCC(CC)COP(=O)(OCC(CC)CCCC)OCC(CC)CCCC` (stereo not drawn) [tris(2-ethylhexyl) phosphate], for which the “inhibition in glucose consumption” value in the series with ethanol red yeast strain (Example 12) is given as “No significant inhibition in glucose consumption”. The “Glucose (grams per liter, gpl)” value was 17 gpl in the series on ethanol red yeast strain (time 0 hours, 1.1 OD, 10 ml solvent on 20 ml medium, 32° C.); 0 gpl with ethanol red yeast strain (time 5 hours); 11.5 gpl with ethanol red yeast strain (time […]).

Source of the values: patent publication US9682908B2, “Method for producing butanol using extractive fermentation” (BUTAMAX ADVANCED BIOFUELS LLC, priority 2013, dated 2017).
